The structures appear in SMILES notation. pKi: −log10 of the molar value. Numbered stars: 1 amine (or outer) side, 2 acyl side, 3 side chain; on linkers, the order of the positions; unused ones are H or OH. Square brackets hold non-standard residues; d marks the D form. Peptide text beside a SMILES is read from it. * marks the point of attachment. DOTA = O=C(O)CN1CCN(CC(=O)O)CCN(CC(=O)*)CCN(CC(=O)O)CC1; Gly(N-(3-F-4-Me-benzyl)) = Cc1ccc(CNCC(=O)*)cc1F; Api(1-amidino) = N=C(N)N1CCC(N)(C(=O)O)CC1; Hydrocinnamoyl(4-Me) = Cc1ccc(CCC(=O)*)cc1; d(γGlu) = O=C(O)[C@@H](CCC(=O)[*:2])N[*:1]; Hydrocinnamoyl(4-I) = O=C(CCc1ccc(I)cc1)*; Phe(4-CN) = N#Cc1ccc(C[C@H](N)C(=O)O)cc1; X3 = CNC(=N)N1CCC(N[*:1])(C(=O)[*:2])CC1; d2Nal = N[C@H](Cc1ccc2ccccc2c1)C(=O)O; Palmitoyl = CCCCCCCCCCCCCCCC(=O)*; d4Pal = N[C@H](Cc1ccncc1)C(=O)O; Cha = N[C@@H](CC1CCCCC1)C(=O)O; Lauroyl = CCCCCCCCCCCC(=O)*; Api = NC1(C(=O)O)CCNCC1; PEG2 = NCCOCCOCCC(=O)O; Ahx = NCCCCCC(=O)O; azaGly = NNC(=O)O

Sequence of human kisspeptin receptor (Q969F8 whole entry): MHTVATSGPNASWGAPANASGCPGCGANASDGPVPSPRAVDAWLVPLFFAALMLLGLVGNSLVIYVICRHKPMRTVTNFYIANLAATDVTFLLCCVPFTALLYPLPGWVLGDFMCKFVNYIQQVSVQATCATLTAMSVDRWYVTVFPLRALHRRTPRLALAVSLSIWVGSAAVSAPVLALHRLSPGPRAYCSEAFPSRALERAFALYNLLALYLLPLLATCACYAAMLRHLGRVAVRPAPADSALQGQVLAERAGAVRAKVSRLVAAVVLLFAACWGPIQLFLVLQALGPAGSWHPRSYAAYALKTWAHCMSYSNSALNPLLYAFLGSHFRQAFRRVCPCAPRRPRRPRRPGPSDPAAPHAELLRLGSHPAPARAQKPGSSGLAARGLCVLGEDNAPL

For this assay, the target named is human kisspeptin receptor (Homo sapiens (Human), UniProt Q969F8). The experiment in a line: Human KISS1R binding assay (membrane competition binding). The note with it: 90 min at room temperature; competition with 0.2 nM [125I]-metastin (45-54); Flp-In T-Rex 293 kisspeptin membranes; metal complexes nonradioactive Ga, In, Lu; read-out: hKiSSR Binding Ki (90 min). The gist of the method:
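Radioligand competition: 0.2 nM [125I]-metastin (45-54) displaced by test ligand (usually 0–10,000 nM) over 90 min at room temperature, pH 7.4 buffer with 0.1% BSA. Receptor source is crude membrane (5–10 μg) from tetracycline-induced Flp-In T-Rex 293 cells. Bound label filtered and counted; Ki from non-linear regression.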
The term pKi denotes the Ki on a negative log10 scale, so that one unit is a factor of ten. In the case of `Cc1ccc(CNCC(=O)N2CCC(NC(=O)[C@H](CC(C)C)NC(=O)NNC(=O)[C@H](CC3CCCCC3)NC(=O)[C@@H](NC(=O)[C@H](CC(N)=O)NC(=O)[C@@H](Cc3ccncc3)NC(=O)[C@@H](Cc3ccc(O)cc3)NC(=O)CN3CCN(CC(=O)O)CCN(CC(=O)O)CCN(CC(=O)O)CC3)[C@@H](C)O)(C(=O)N[C@@H](Cc3c[nH]c4ccccc34)C(N)=O)CC2)cc1F` [Compound 315] ({DOTA}-[dY][d4Pal]NT[Cha][azaGly]L[Api](Gly(N-(3-F-4-Me-benzyl)))W-NH2), the negative-log Ki (pKi) is above 8.00. As to `Cc1ccc(CNCC(=O)N2CCC(NC(=O)[C@H](CC(C)C)NC(=O)NNC(=O)[C@H](CC3CCCCC3)NC(=O)[C@@H](NC(=O)[C@H](CC(N)=O)NC(=O)[C@@H](Cc3ccncc3)NC(=O)[C@@H](Cc3ccc(O)cc3)NC(=O)CCCCCNC(=O)CN3CCN(CC(=O)O)CCN(CC(=O)O)CCN(CC(=O)O)CC3)[C@@H](C)O)(C(=O)N[C@@H](Cc3c[nH]c4ccccc34)C(N)=O)CC2)cc1F` [Compound 316] ({DOTA-Ahx}-[dY][d4Pal]NT[Cha][azaGly]L[Api](Gly(N-(3-F-4-Me-benzyl)))W-NH2), the negative logarithm of the Ki (pKi) is above 8.00. As for `CC(C)C[C@H](NC(=O)NNC(=O)[C@H](CC1CCCCC1)NC(=O)[C@@H](NC(=O)[C@H](CC(N)=O)NC(=O)[C@@H](Cc1ccc2ccccc2c1)NC(=O)[C@@H](Cc1ccc(O)cc1)NC(=O)CCCCCNC(=O)CN1CCN(CC(=O)O)CCN(CC(=O)O)CCN(CC(=O)O)CC1)[C@@H](C)O)C(=O)NC1(C(=O)N[C@@H](Cc2c[nH]c3ccccc23)C(N)=O)CCN(C(=N)N)CC1` [Compound 317] ({DOTA-Ahx}-[dY][d2Nal]NT[Cha][azaGly]L[Api(1-amidino)]W-NH2), the figure is above 8.00; as for `Cc1ccc(CNCC(=O)N2CCC(NC(=O)[C@H](CC(C)C)NC(=O)NNC(=O)[C@H](CC3CCCCC3)NC(=O)[C@@H](NC(=O)[C@H](CC(N)=O)NC(=O)[C@@H](Cc3ccc4ccccc4c3)NC(=O)[C@@H](Cc3ccc(O)cc3)NC(=O)CN3CCN(CC(=O)O)CCN(CC(=O)O)CCN(CC(=O)O)CC3)[C@@H](C)O)(C(=O)N[C@@H](Cc3c[nH]c4ccccc34)C(N)=O)CC2)cc1F` [Compound 318] ({DOTA}-[dY][d2Nal]NT[Cha][azaGly]L[Api](Gly(N-(3-F-4-Me-benzyl)))W-NH2), above 8.00; as for `CNC(=N)N1CCC(NC(=O)[C@H](CC(C)C)NC(=O)NNC(=O)[C@H](Cc2ccccc2)NC(=O)[C@@H](NC(=O)[C@H](CC(N)=O)NC(=O)[C@@H](Cc2ccc3ccccc3c2)NC(=O)[C@@H](Cc2ccc(O)cc2)NC(=O)CCCCCNC(=O)CN2CCN(CC(=O)O)CCN(CC(=O)O)CCN(CC(=O)O)CC2)[C@@H](C)O)(C(=O)N[C@H](Cc2c[nH]c3ccccc23)C(N)=O)CC1` [Compound 319] ({DOTA-Ahx}-[dY][d2Nal]NTF[azaGly]L[X3][dW]-NH2), below 7.00. Under `CC(C)C[C@H](NC(=O)NNC(=O)[C@H](Cc1ccccc1)NC(=O)[C@@H](NC(=O)[C@H](CC(N)=O)NC(=O)[C@H](CCCCNC(=O)CN1CCN(CC(=O)O)CCN(CC(=O)O)CCN(CC(=O)O)CC1)NC(=O)[C@@H](Cc1ccc(O)cc1)NC(=O)CC[C@@H](NC(=O)CCc1ccc(I)cc1)C(=O)O)[C@@H](C)O)C(=O)NC1(C(=O)N[C@@H](Cc2c[nH]c3ccccc23)C(N)=O)CCN(C(=N)N)CC1` [Compound 320] ({Hydrocinnamoyl(4-I)-d(γGlu)}-[dY]K(DOTA)NTF[azaGly]L[Api(1-amidino)]W-NH2) stands above 8.00.

In the case of `CC(C)C[C@H](NC(=O)NNC(=O)[C@H](Cc1ccccc1)NC(=O)[C@@H](NC(=O)[C@H](CC(N)=O)NC(=O)[C@H](CCCCNC(=O)CN1CCN(CC(=O)O)CCN(CC(=O)O)CCN(CC(=O)O)CC1)NC(=O)[C@@H](Cc1ccc(O)cc1)NC(=O)CCc1ccc(I)cc1)[C@@H](C)O)C(=O)NC1(C(=O)N[C@@H](Cc2c[nH]c3ccccc23)C(N)=O)CCN(C(=N)N)CC1` [Compound 321] ({Hydrocinnamoyl(4-I)}-[dY]K(DOTA)NTF[azaGly]L[Api(1-amidino)]W-NH2), the pKi is above 8.00. As for `Cc1ccc(CCC(=O)NCCOCCOCCC(=O)N[C@H](Cc2ccc(O)cc2)C(=O)N[C@@H](CCCCNC(=O)CN2CCN(CC(=O)O)CCN(CC(=O)O)CCN(CC(=O)O)CC2)C(=O)N[C@@H](CC(N)=O)C(=O)N[C@H](C(=O)N[C@@H](Cc2ccccc2)C(=O)NNC(=O)N[C@@H](CC(C)C)C(=O)NC2(C(=O)N[C@@H](Cc3ccccc3)C(N)=O)CCN(C(=N)N)CC2)[C@@H](C)O)cc1` [Compound 322] ({Hydrocinnamoyl(4-Me)-PEG2}-[dY]K(DOTA)NTF[azaGly]L[Api(1-amidino)]F-NH2), the figure is above 8.00. Consider `CC(C)C[C@H](NC(=O)NNC(=O)[C@H](Cc1ccccc1)NC(=O)[C@@H](NC(=O)[C@H](CC(N)=O)NC(=O)[C@H](CCCCNC(=O)CN1CCN(CC(=O)O)CCN(CC(=O)O)CCN(CC(=O)O)CC1)NC(=O)[C@@H](Cc1ccc(O)cc1)NC(=O)CCOCCOCCNC(=O)CCc1ccc(I)cc1)[C@@H](C)O)C(=O)NC1(C(=O)N[C@@H](Cc2ccccc2)C(N)=O)CCN(C(=N)N)CC1` [Compound 323] ({Hydrocinnamoyl(4-I)-PEG2}-[dY]K(DOTA)NTF[azaGly]L[Api(1-amidino)]F-NH2), for which the pKi was above 8.00. As for `CC(C)C[C@H](NC(=O)NNC(=O)[C@H](Cc1ccccc1)NC(=O)[C@@H](NC(=O)[C@H](CC(N)=O)NC(=O)[C@H](CCCCNC(=O)CN1CCN(CC(=O)O)CCN(CC(=O)O)CCN(CC(=O)O)CC1)NC(=O)[C@@H](Cc1ccc(O)cc1)NC(=O)CCOCCOCCNC(=O)CCc1ccc(I)cc1)[C@@H](C)O)C(=O)NC1(C(=O)N[C@@H](Cc2ccc(O)cc2)C(N)=O)CCN(C(=N)N)CC1` [Compound 324] ({Hydrocinnamoyl(4-I)-PEG2}-[dY]K(DOTA)NTF[azaGly]L[Api(1-amidino)]Y-NH2), the pKi is above 8.00.

As to `CC(C)C[C@H](NC(=O)NNC(=O)[C@H](Cc1ccccc1)NC(=O)[C@@H](NC(=O)[C@H](CC(N)=O)NC(=O)[C@H](CCCCNC(=O)CN1CCN(CC(=O)O)CCN(CC(=O)O)CCN(CC(=O)O)CC1)NC(=O)[C@@H](Cc1ccc(O)cc1)NC(=O)CCOCCOCCNC(=O)CCc1ccc(I)cc1)[C@@H](C)O)C(=O)NC1(C(=O)N[C@@H](Cc2ccc(C#N)cc2)C(N)=O)CCN(C(=N)N)CC1` [Compound 325] ({Hydrocinnamoyl(4-I)-PEG2}-[dY]K(DOTA)NTF[azaGly]L[Api(1-amidino)][Phe(4-CN)]-NH2), the pKi is above 8.00. For `Cc1ccc(CCC(=O)NCCOCCOCCC(=O)N[C@H](Cc2ccc(O)cc2)C(=O)N[C@@H](CCCCNC(=O)CN2CCN(CC(=O)O)CCN(CC(=O)O)CCN(CC(=O)O)CC2)C(=O)N[C@@H](CC(N)=O)C(=O)N[C@H](C(=O)N[C@@H](CC2CCCCC2)C(=O)NNC(=O)N[C@@H](CC(C)C)C(=O)NC2(C(=O)N[C@@H](Cc3c[nH]c4ccccc34)C(N)=O)CCN(C(=N)N)CC2)[C@@H](C)O)cc1` [Compound 326] ({Hydrocinnamoyl(4-Me)-PEG2}-[dY]K(DOTA)NT[Cha][azaGly]L[Api(1-amidino)]W-NH2), the pKi is above 8.00. Under `CC(C)C[C@H](NC(=O)NNC(=O)[C@H](CC1CCCCC1)NC(=O)[C@@H](NC(=O)[C@H](CC(N)=O)NC(=O)[C@H](CCCCNC(=O)CN1CCN(CC(=O)O)CCN(CC(=O)O)CCN(CC(=O)O)CC1)NC(=O)[C@@H](Cc1ccc(O)cc1)NC(=O)CCOCCOCCNC(=O)CCc1ccc(I)cc1)[C@@H](C)O)C(=O)NC1(C(=O)N[C@@H](Cc2c[nH]c3ccccc23)C(N)=O)CCN(C(=N)N)CC1` [Compound 327] ({Hydrocinnamoyl(4-I)-PEG2}-[dY]K(DOTA)NT[Cha][azaGly]L[Api(1-amidino)]W-NH2) stands above 8.00. Take `CCCCCCCCCCCCCCCC(=O)N[C@H](Cc1ccc(O)cc1)C(=O)N[C@@H](CCCCNC(=O)CN1CCN(CC(=O)O)CCN(CC(=O)O)CCN(CC(=O)O)CC1)C(=O)N[C@@H](CC(N)=O)C(=O)N[C@H](C(=O)N[C@@H](Cc1ccccc1)C(=O)NNC(=O)N[C@@H](CC(C)C)C(=O)NC1(C(=O)N[C@@H](Cc2c[nH]c3ccccc23)C(N)=O)CCN(C(=N)N)CC1)[C@@H](C)O` [Compound 328] (Palmitoyl-[dY]K(DOTA)NTF[azaGly]L[Api(1-amidino)]W-NH2): the negative-log Ki (pKi) was above 8.00.

Take `CCCCCCCCCCCC(=O)N[C@H](Cc1ccc(O)cc1)C(=O)N[C@@H](CCCCNC(=O)CN1CCN(CC(=O)O)CCN(CC(=O)O)CCN(CC(=O)O)CC1)C(=O)N[C@@H](CC(N)=O)C(=O)N[C@H](C(=O)N[C@@H](Cc1ccccc1)C(=O)NNC(=O)N[C@@H](CC(C)C)C(=O)NC1(C(=O)N[C@@H](Cc2c[nH]c3ccccc23)C(N)=O)CCN(C(=N)N)CC1)[C@@H](C)O` [Compound 329] (Lauroyl-[dY]K(DOTA)NTF[azaGly]L[Api(1-amidino)]W-NH2): the pKi was above 8.00. As for `CCCCCCCCCCCCCCCC(=O)N[C@H](Cc1ccc(O)cc1)C(=O)N[C@@H](CCCCNC(=O)CN1CCN(CC(=O)O)CCN(CC(=O)O)CCN(CC(=O)O)CC1)C(=O)N[C@@H](CC(N)=O)C(=O)N[C@H](C(=O)N[C@@H](Cc1ccccc1)C(=O)NNC(=O)N[C@@H](CC(C)C)C(=O)NC1(C(=O)N[C@@H](Cc2ccc(O)cc2)C(N)=O)CCN(C(=N)N)CC1)[C@@H](C)O` [Compound 330] (Palmitoyl-[dY]K(DOTA)NTF[azaGly]L[Api(1-amidino)]Y-NH2), the figure is above 8.00; as for `CCCCCCCCCCCC(=O)N[C@H](Cc1ccc(O)cc1)C(=O)N[C@@H](CCCCNC(=O)CN1CCN(CC(=O)O)CCN(CC(=O)O)CCN(CC(=O)O)CC1)C(=O)N[C@@H](CC(N)=O)C(=O)N[C@H](C(=O)N[C@@H](Cc1ccccc1)C(=O)NNC(=O)N[C@@H](CC(C)C)C(=O)NC1(C(=O)N[C@@H](Cc2ccc(O)cc2)C(N)=O)CCN(C(=N)N)CC1)[C@@H](C)O` [Compound 331] (Lauroyl-[dY]K(DOTA)NTF[azaGly]L[Api(1-amidino)]Y-NH2), above 8.00.
